Values of other authors in patent publication US20220095646A1, “METHODS FOR THE PRODUCTION AND USE OF MYCELIATED AMINO ACID-SUPPLEMENTED FOOD COMPOSITIONS” (MycoTechnology, Inc., priority 2019, published 2022).

Compound: N[C@@H](CC(=O)O)C(=O)O [Aspartic acid]
- Taste thresholds (Kato et al. 1989), sour: 0.03 mg/mL
- Taste thresholds (Kato et al. 1989), umami: 1 mg/mL

Compound: N[C@@H](CCC(=O)O)C(=O)O [Glutamic acid]
- Taste thresholds (Kato et al. 1989), sour: 0.05 mg/mL
- Taste thresholds (Kato et al. 1989), umami: 0.3 mg/mL

Compound: CC[C@H](C)[C@H](N)C(=O)O [Isoleucine]
- Taste thresholds (Kato et al. 1989), bitter: 0.9 (bitter) mg/mL

Compound: NCCCC[C@H](N)C(=O)O [Lysine]
- Taste thresholds (Kato et al. 1989), sweet and bitter (sweet and bitter): 0.5 (sweet and bitter) mg/mL

Compound: C[C@@H](O)[C@H](N)C(=O)O [Threonine]
- Taste thresholds (Kato et al. 1989), sweet (sweet): 2.6 (sweet) mg/mL

Compound: CC(C)[C@H](N)C(=O)O [Valine]
- Taste thresholds (Kato et al. 1989), bitter: 0.4 (bitter) mg/mL
